Results published in US20260048046A1, “METHOD FOR IMPROVING GROWTH PERFORMANCE IN FEEDLOT CATTLE” (Elanco US Inc., priority 2022, published 2026).
“Also recorded” adds a separate entry of the source.

Tested on: beef cattle
Assay: 91-d study: carcass characteristics
Type: in vivo
Conditions: for Adjusted fat thickness / Calculated yield grade / HGW / IM area / KPH / Dressing percentage / Lean maturity / Overall maturity / Skeletal maturity / Marbling score: 91-d treatment, LS mean; for Dressing percentage: unshrunk BW basis; for Lean maturity / Overall maturity / Skeletal maturity: 100 A, 200 B maturity; for Marbling score: 500 Small, 600 Modest
Source text: A randomized complete block design was used to evaluate the effect of lubabegron (LUB) on performance over a 91-d period using 336 beef cattle (BW=453±34.5 kg) housed in cattle pen enclosures (CPE). Four LUB treatments were included in the study based on dose: 0.0 (control or CON), 1.38, 5.5, and 22.0 (mg·kg^−1 of DM). Because there was a limited number of CPE (n=8), three sequential cycles (blocks) were required to generate 6 replicates of each dose×sex combination. As such, 112 cattle (56 steers and 56 heifers) were housed concurrently within each cycle across the eight CPE (14 cattle/CPE), with each dose×sex combination being represented by a single CPE/cycle. To assure different frame sizes of cattle were represented, cattle in cycles one and three were large-frame Continental crossbreds, whereas cattle in cycle 2 were medium-frame British crossbreds.
On day 91, cattle were loaded onto double-decked aluminum semi-trailers and transported ˜1,000 km to a commercial abattoir where they were slaughtered following an ˜5 to 9 h lairage. Carcass identification was maintained throughout the slaughter process by recording ear tag sequence at stunning and then cross-matching to sequentially numbered carcass tags. Hot carcass weights and KPH were measured following industry standard processing, and yield grade (YG) and quality grade data were collected from left carcass sides by trained university personnel after 22 h in a spray-chill system.
Data were analyzed using version 9.2 of SAS (SAS Institute, Cary, NC), and the individual CPE were considered the experimental unit. Continuous variables were analyzed using PROC MIXED, with treatment (LUB dose), sex, and the dose×sex interaction as fixed effects, and cycle as the random effect included in the model. If the dose×sex interaction was not significant (P>0.05), the main effect of dose pooled across sexes was evaluated. When the main effect of dose was significant (P≤0.05) or tended to be significant (0.05≤P≤0.10), planned contrasts comparing each LUB dose to CON were performed in a pairwise fashion. If the dose×sex was significant (P≤0.05) planned contrasts comparing each LUB dose to CON within sex were performed in a pairwise fashion. Treatment means were estimated using the LSMEANS statement.
Discrete variables were analyzed with a generalized linear mixed model using a binomial distribution and logit link function in PROC GLIMMIX. The classification of fixed and random effects and the handling of interactions and pairwise comparisons were performed in a similar manner as the continuous variables. Statistical analyses for YG were performed on both continuous and discrete (YG 1=1.00 to 1.99, YG 2=2.00 to 2.99, and so on) forms of data, and quality grades were further sorted into the five categories routinely used for determining premium or discount adjustments when cattle are marketed on a grid-based system (U.S. Prime, upper 2/3 Choice, low Choice, Select, and Standard). […] Fisher's exact test was performed using PROC FREQ to evaluate the frequency distribution of the CON cattle compared with LUB. Statistical significance for the main effects of dose was determined by P≤0.05 and tendencies were declared when 0.05≤P≤0.10.

## CC(C)(Cc1ccc(Oc2ncccc2C#N)cc1)NC[C@H](O)COc1ccccc1-c1cccs1 [LUB, 2-{4-[2-({(2S)-2-Hydroxy-3-[2-(2-thienyl)phenoxy]propyl}amino)-2-methylpropyl]phenoxy}nicotinonitrile]
91 d, P≥0.262
  Effect of LUB treatment on skeletal, lean, or overall maturity: no effect
91 d, YG as discrete variable, CON vs LUB-fed
  Probability of cattle producing a YG3 carcass: greater (P<0.019) for CON-than LUB-fed cattle
91 d, across treatments, P≥0.233
  Probability of cattle producing YG1, YG2, or YG4 carcasses: similar
91 d, all LUB doses vs CON, P=0.155
  Effect of LUB treatment on calculated YG: no effect
91 d, all LUB doses vs CON, P=0.579
  Effect of LUB treatment on adjusted fat thickness: not affected; also recorded: no change
91 d, only a single carcass over the entire study
  Dark cutter incidence: not influenced by treatment
LUB 1.38 mg·kg^−1 DM (first of the respective treatments), 91 d
  Increased HCW: 15 kg animal-1
LUB 1.38 mg·kg^−1 DM
  Adjusted fat thickness: 1.15 cm
  Calculated yield grade: 2.37
  HGW: 364 kg
  IM area: 94.8 cm^2
  KPH: 1.99%
  Dressing percentage: 62.4%
  Lean maturity: 163
  Overall maturity: 168
  Skeletal maturity: 170
  Marbling score: 573
LUB 5.5 mg·kg^−1 DM (second of the respective treatments), 91 d
  Increased HCW: 16 kg animal-1
LUB 5.5 mg·kg^−1 DM
  Adjusted fat thickness: 1.24 cm
  Calculated yield grade: 2.41
  HGW: 365 kg
  KPH: 1.96%
  Dressing percentage: 62.7%
  Lean maturity: 167
  Overall maturity: 169
  Skeletal maturity: 170
  Marbling score: 560
LUB 22.0 mg·kg^−1 DM (third of the respective treatments), 91 d
  Increased HCW: 16 kg animal-1
LUB 22.0 mg·kg^−1 DM
  Adjusted fat thickness: 1.19 cm
  Calculated yield grade: 2.25
  HGW: 365 kg
  IM area: 96.8 cm^2
  KPH: 1.61%
  Dressing percentage: 62.8%
  Lean maturity: 163
  Overall maturity: 168
  Skeletal maturity: 172
  Marbling score: 562
Cattle fed LUB (1.38, 5.5, 22.0 mg·kg^−1 DM), 91 d
  Carcass weights heavier than CON: about 15 kg
Cattle fed LUB, 91 d, P=0.004
  Probability of grading high Choice vs CON: lower
Cattle fed LUB, 91 d, P=0.021
  Probability of grading low Choice vs CON: greater
